According to US11542235B2, “Herbicidal 3-azaspiro[5.5] undecane-8, 10-dione compounds” (SYNGENTA PARTICIPATIONS AG, priority 2018, dated 2023):

Key:
Format in all cases: in vivo
Lolium perenne (LOLPE) = test: Glasshouse herbicidal test, pre- and post-emergence, Lolium perenne; settings: 250 g/h, evaluated after 13 days, five point scale; for percentage damage caused to the plant, LOLPE POST: post-emergence; for percentage damage caused to the plant, LOLPE PRE: pre-emergence
Procedure: (§1) Seeds of a variety of test species are sown in standard soil in pots (Lolium perenne (LOLPE), Setaria faberi (SETFA), Alopecurus myosuroides (ALOMY), Echinochloa crus-galli (ECHCG), Avena fatua (AVEFA)). After cultivation for one day (pre-emergence) or after 8 days cultivation (post-emergence) under controlled conditions in a glasshouse (at 24/16° C., day/night; 14 hours light; 65% humidity), the plants are sprayed with an aqueous spray solution derived from the formulation of the technical active ingredient in acetone/water (50:50) solution containing 0.5% Tween 20 (polyoxyethelyene sorbitan monolaurate, CAS RN 9005-64-5). Compounds are applied at […]. The test plants are then grown in a glasshouse under controlled conditions in a glasshouse (at 24/16° C., day/night; 14 hours light; 65% humidity) and watered twice daily. After 13 days for pre and post-emergence, the test is evaluated for the percentage damage caused to the plant. The biological activities are shown in the following table on a five point scale (5=80-100%; 4=60-79%; 3=40-59%; 2=20-39%; 1=0-19%).

Setaria faberi (SETFA) = test: Glasshouse herbicidal test, pre- and post-emergence, Setaria faberi; settings: 250 g/h, evaluated after 13 days, five point scale; for percentage damage caused to the plant, SETFA POST: post-emergence; for percentage damage caused to the plant, SETFA PRE: pre-emergence
Procedure: as §1

[1] = system: Alopecurus myosuroides (ALOMY); test: Glasshouse herbicidal test, pre- and post-emergence, Alopecurus myosuroides; settings: 250 g/h, evaluated after 13 days, five point scale; for percentage damage caused to the plant, ALOMY POST: post-emergence; for percentage damage caused to the plant, ALOMY PRE: pre-emergence
Procedure: as §1

[2] = system: Echinochloa crus-galli (ECHCG); test: Glasshouse herbicidal test, pre- and post-emergence, Echinochloa crus-galli; settings: 250 g/h, evaluated after 13 days, five point scale; for percentage damage caused to the plant, ECHCG POST: post-emergence; for percentage damage caused to the plant, ECHCG PRE: pre-emergence
Procedure: as §1

Avena fatua (AVEFA) = test: Glasshouse herbicidal test, pre- and post-emergence, Avena fatua; settings: 250 g/h, evaluated after 13 days, five point scale; for percentage damage caused to the plant, AVEFA POST: post-emergence; for percentage damage caused to the plant, AVEFA PRE: pre-emergence
Procedure: as §1

Compound | percentage damage caused to the plant, LOLPE POST (Lolium perenne (LOLPE)) | percentage damage caused to the plant, LOLPE PRE (Lolium perenne (LOLPE)) | percentage damage caused to the plant, SETFA POST (Setaria faberi (SETFA)) | percentage damage caused to the plant, SETFA PRE (Setaria faberi (SETFA)) | percentage damage caused to the plant, ALOMY POST [1] | percentage damage caused to the plant, ALOMY PRE [1] | percentage damage caused to the plant, ECHCG POST [2] | percentage damage caused to the plant, ECHCG PRE [2] | percentage damage caused to the plant, AVEFA POST (Avena fatua (AVEFA)) | percentage damage caused to the plant, AVEFA PRE (Avena fatua (AVEFA))
CC#Cc1cc(C)c(C2=C(OS(=O)(=O)CC)CC3(CCN(C(C)=O)CC3)CC2=O)c(C)c1 [Compound P13] | 5 (5=80-100%) | 5 (5=80-100%) | 5 (5=80-100%) | 5 (5=80-100%) | 5 (5=80-100%) | 4 (4=60-79%) | 5 (5=80-100%) | 4 (4=60-79%) | 5 (5=80-100%) | 5 (5=80-100%)
CC#Cc1cc(C)c(C2=C(OC(=O)SC(C)C)CC3(CCN(C(C)=O)CC3)CC2=O)c(C)c1 [Compound P14] | 5 (5=80-100%) | 5 (5=80-100%) | 5 (5=80-100%) | 5 (5=80-100%) | 5 (5=80-100%) | 5 (5=80-100%) | 5 (5=80-100%) | 5 (5=80-100%) | 5 (5=80-100%) | 5 (5=80-100%)
CC#Cc1cc(C)c(C2=C(OC(=O)C3CC3)CC3(CCN(C(C)=O)CC3)CC2=O)c(C)c1 [Compound P15] | 5 (5=80-100%) | 5 (5=80-100%) | 5 (5=80-100%) | 5 (5=80-100%) | 5 (5=80-100%) | 5 (5=80-100%) | 5 (5=80-100%) | 5 (5=80-100%) | 5 (5=80-100%) | 5 (5=80-100%)
CC#Cc1cc(C)c(C2=C(OC(=O)OC)CC3(CCN(C(=O)C(F)F)CC3)CC2=O)c(C)c1 [Compound P16] | 5 (5=80-100%) | 5 (5=80-100%) | 5 (5=80-100%) | 5 (5=80-100%) | 5 (5=80-100%) | 5 (5=80-100%) | 5 (5=80-100%) | 5 (5=80-100%) | 5 (5=80-100%) | 5 (5=80-100%)
C#CCOC1=C(c2c(C)cc(C#CC)cc2C)C(=O)CC2(CCN(C(C)=O)CC2)C1 [Compound P17] | 5 (5=80-100%) | 5 (5=80-100%) | 5 (5=80-100%) | 5 (5=80-100%) | 5 (5=80-100%) | 5 (5=80-100%) | – | 5 (5=80-100%) | 5 (5=80-100%) | 5 (5=80-100%)
CC#Cc1cc(C)c(C2=C(OC(=O)OC)CC3(CCN(C(C)=O)CC3)CC2=O)c(OC)c1 [Compound P18] | 5 (5=80-100%) | 5 (5=80-100%) | 5 (5=80-100%) | 5 (5=80-100%) | 5 (5=80-100%) | 5 (5=80-100%) | – | 5 (5=80-100%) | 5 (5=80-100%) | 5 (5=80-100%)
